# Experimental data reported in patent publication US9789117B2, “Use of sigma ligands in diabetes type-2 associated pain” (LABORATORIOS DEL DR. ESTEVE, S.A., priority 2011, dated 2017).
# Entries after “also recorded” stand apart in the source; their conditions may differ. Where a name gives a salt, the structure may show the parent alone.
# Key:
# Format in all cases: in vivo, rat
# [1] = system: male ZDF (Zucker Diabetic Fatty) rats; test: Plantar test (thermal hyperalgesia, withdrawal latency); conditions: for effect on thermal hyperalgesia (plantar test), acute treatment: single 64 mg/kg i.p., compared with week 7 baseline, 64 mg/kg
# Procedure: (§1) The example 1 was dissolved in physiological saline (0.9%) and pH was corrected to 5 with NaOH. The compound was administered by the intraperitoneal (i.p.) route. The doses of drug employed in the present study were 64 mg/kg i.p. for acute administration and 25 mg/kg i.p. twice a day (BID) for the chronic treatment during 14 days. The compound and the saline (vehicle) adjusted at pH 5, were administered in a volume of 0.5 ml.
# (§2) All experimental protocols were performed in strict accordance with the EC regulation for care and use of experimental animals (86/609/EEC). Studies were performed with male ZDF (Zucker Diabetic Fatty) rats (ZDF/Gmi, fa/fa) obtained from Charles Rivers Genetic Models Inc. 6 week old rats were housed in groups of two in standard transparent cages, under a 12 light-dark cycle, and animals were maintained on Purina 5008 (16.7 kcal % fat) diet and sterile tap water, available ad libitum. Nonfasting blood glucose levels and body weight were regularly monitored.
# (§3) Acute example 1: animals received one injection (0.5 ml) of example 1 (64 mg/kg i.p.) 30 minutes before behavioral testing (n=8).
# (§4) Chronic example 1: animals received one injection (0.5 ml) of example 1 (25 mg/kg BID, for 14 days) (n=8). Behavioral tests were performed once a week during the treatment, and one week after the last administration they were sacrificed and electrophysiological and cardiovascular experiments were carried out.
# Thermal (heat) hyperalgesia (heat-nociception) was tested using a 37370 plantar test apparatus (Ugo Basile, Comerio VA, Italy). The withdrawal latency from a focused beam of radiant heat applied to the mid plantar surface of the hindpaws was recorded. The intensity of light was adjusted at the start of the experiment such that the control average baseline latencies were about 8 s and a cut-off latency of 30 s was imposed. The withdrawal latency of each paw was measured and the mean value was used for data analysis. The antihyperalgesic effect of the treatment was evidenced as an increase in the withdrawal latency respect to control baseline latencies.
# Plantar test results are expressed as the percentage of the mean of thermal latency obtained from both hindpaws.
# Data are expresses as mean+standard error mean (SEM). Statistical analysis of drug effects for significant differences between multiple groups were performed by analysis of variance (ANOVA), followed, when appropriate, by post-hoc Newman-Keuls test or Bonferroni Test. P<0.05 was considered as statistically significant.
# [2] = system: male ZDF (Zucker Diabetic Fatty) rats; test: Von Frey test (mechanical allodynia, pressure threshold)
# Procedure: as §1, §2, §3, §4
# Mechanical allodynia was assessed using an electronic Von Frey apparatus (EVF3, Bioseb, BP89, Chaville Cedez, France). Rats were placed individually on an elevated iron mesh floor, covered by a transparent plastic cage and were allowed to adapt to the testing environment for at least 15 minutes. The test was done by applying the von Frey filament through the mesh floor to the plantar surface of each hindpaw.
# The test was performed three times with approximately 3 min interval between trials. The mean of the three trials was used for data analysis. […]
# Von Frey test results are expressed as the percentage of the mean of mechanical threshold obtained from both hindpaws. […]
# [3] = system: male ZDF (Zucker Diabetic Fatty) rats; test: Spontaneous locomotor activity (photocell activity chambers)
# Procedure: as §1
# as §2, with “monitored. […]” for “monitored.”
# it was evaluated using individual photocell activity chambers (Cibertec, Spain). Rats were placed in the recording chambers (55×40 cm, spacing between beams 3 cm) […] after drug administration, and the number of interruptions of photocell beams was recorded over a 30-min period.
# Spontaneous locomotor activity is expressed as the percentage of the mean number of crossings of the photocell beams over 30 minutes. […]
# [4] = system: Aδ-fibres of ZDF rats; test: Skin-nerve preparation and electrophysiological recordings (saphenous nerve Aδ-fibres, mechanical stimulation) after chronic treatment
# Procedure: as §4
# 3.2 Skin—Nerve Preparation and Electrophysiological Recordings
# In order to minimize pain or discomfort, animals were killed by cervical dislocation. The saphenous nerve and its innervating territory on the hairy hindpaw skin were subcutaneously dissected and excised. […] Neuronal activity was recorded using gold-wire electrodes. Small filaments of the nerve were repeatedly split with sharpened forceps until a single unit activity could be recorded from them. […] Spikes were later analyzed offline using the SPIDI software.
# Units were first identified by manual probing of the skin with a blunt glass rod that exerts a pressure of more than 500 mN to search for their receptive field (RF). […] In order to characterize the units, we assessed their conduction velocity (CV) by electrically stimulating the RF with supramaximal square-wave pulses (pulse width, 0.5 ms; train frequency, 0.2 Hz; variable intensity) with a Teflon-coated steel microneurography electrode (shaft diameter 1 mm, bare tip diameter 5-10 μm impedance 1-5 MΩ); an indifferent electrode was placed nearby in the organ bath. […]
# [5] = ZDF rats, 25 mg/kg i.p. BID for 14 days (week 13 to 15)
# [6] = chronic treatment 25 mg/kg for 14 days, twice a day
smiles,measurement,setting,value
"Cc1cc(OCCN2CCOCC2)nn1-c1ccc2ccccc2c1 [Example 1, 4-{2-[5-methyl-1-(naphthalen-2-yl)-1H-pyrazol-3-yloxy]ethyl}morpholine hydrochloride]",increase of the latency to hindpaw withdrawal in response to thermal stimulation (plantar test),"[1]; ZDF rats aged 13 weeks, acute 64 mg/kg i.p., 30 minutes before test, mean±SEM, vehicle 12.6±6.9%",25.5±9.1%
same,"effect on thermal hyperalgesia (plantar test), acute treatment","[1]; ZDF rats aged 13 weeks, hydrochloride",reversed thermal hyperalgesia
same,"effect on thermal hyperalgesia (plantar test), acute treatment","[1]; ZDF rats aged 13 weeks, listed as example 1, hydrochloride",restored baseline values; also recorded: reversed the changes in the thresholds
same,"effect on thermal hyperalgesia (plantar test), chronic treatment",[1]; [5],completely reversed
same,tolerance to the antihyperalgesic effect,[1]; [6],No tolerance
same,"effect on mechanical allodynia (Von Frey test), acute treatment","[2]; ZDF rats aged 13 weeks, single 64 mg/kg i.p., compared with week 7 baseline, listed as example 1, hydrochloride, 64 mg/kg",restored baseline values; also recorded: the mechanical allodynia was reversed; also recorded: reversed the changes in the thresholds
same,"effect on mechanical allodynia (Von Frey test), chronic treatment",[2]; [5],completely reversed
same,tolerance to the antiallodynic effect,[2]; [6],No tolerance
same,"spontaneous locomotor activity, chronic treatment","[3]; 25 mg/kg i.p. BID for 14 days, vs pretreatment values",no differences
same,"spontaneous locomotor activity, acute treatment",[3]; single 64 mg/kg i.p.,not significantly different
same,threshold of response to the mechanical stimulation (electrophysiological recording),"[4]; 25 mg/kg i.p. BID for 14 days, vs vehicle-treated ZDF rats",reduced the threshold
same,hyperreactivity in response to mechanical stimulation in electrophysiological recordings (Aδ-fibres),"[4]; chronic treatment, conclusion",reduction of the hyperreactivity
